pEC50: −log10 of the molar value. Entries after “also recorded” stand apart in the source; their conditions may differ.
Tests used:
[1] = test system: Human OA derived articular chondrocytes; assay: cAMP-Glo EC50 in chondrocyte cell cultures; type: cell-based; conditions: 45 min treatment
Excerpt: All human cell cultures were obtained from total knee replacement surgery (TKA) in accordance with Hadassah Medical Center Institutional Review Board approval and in accordance with the Helsinki Declaration ethical principles for medical research involving human subjects (Study #0488-09). Following written informed consent, articular cartilage was obtained from the knee joints of OA patients undergoing total knee arthroplasty (n=51, mean age 71 years, mean body mass index 31 kg/m2, Kellgren and Lawrence score ranging 3-4). Articular cartilage tissue was dissected, chondrocytes isolated and plated as described by Bar Oz et al., (10). Isolated chondrocytes were passaged to passage 3, and plated in 96 well plates with DMEM media containing 10% FCS, 1% Penicillin-streptomycin, 1% Amphotericin B. Cultures were maintained in standard incubation conditions (37° C., 5% CO2) until confluence. All reagents for cell culture were purchased for Biological Industries (Israel, Beit-Haemek Kibutz), unless otherwise indicated. […] Luminescence was measured and a standard curve was simultaneously run per plate. […] Using this ΔRLU value and the linear equation generated from the standard curve, the cAMP concentration was calculated. […]

[2] = target: CNR1 (Homo sapiens (Human), UniProt P21554); assay: cAMP Hunter agonist assay, CHO-K1 cells expressing CB1; type: cell-based
Procedure: (§1) Cannabinoid receptors belong to G-protein-coupled receptors which may transduce intracellular agonist-antagonist responses regulating in part levels of cAMP within the cells. Fenchone derivates were assayed using Eurofins proprietary assays (i.e. CB1-Antagonist Catalog #86-0007P-2277AN; CB2-Antagonist Catalog ref. 86-0007P-2818AN; CB1-Agonist; Catalog #86-0007P-2277AG; CB2-Agonist-Catalog #86-0007P-2818AG).
Similarly, for agonist activity, cAMP Hunter™ Gs cell lines overexpress naturally Gs coupled, wild type GPCRs and are designed to detect increases in intracellular cAMP levels in response to agonist stimulation of the receptor. These cell lines are designed to be used in conjunction with the HitHunter® cAMP Assay Detection Kit. For both assays, human CB1 or CB2 receptors were stably transfected CHO-K1 cells and subjected to positive controls, known to activate the increase of cAMP for both receptors (Agonist control 20 μM Forskolin for CB1 and 25 μM Forskolin for CB2) or inhibit cAMP intracellular levels of CB1 ([…] CP55940) or CB2 ([…] CP55940). Cells were seeded in a total volume of 20 μL into white walled, 384-well microplates and incubated at 37° C. overnight. Prior to testing cell plating media was exchanged with 10 uL of Assay buffer (HBSS+10 mM HEPES). […]

[3] = target: hCB2R (Homo sapiens (Human), UniProt P34972); assay: [3H]CP-55,940 competition displacement binding, membranes of CHO-K1 cells expressing human CB2R; conditions: for Ki: displacement of [3H]CP-55,940; for mCB1R/hCB2R: selectivity index from Ki values
Procedure: Affinity for Cannabinoid Receptors. The compounds were further characterized using a radioligand binding assay to determine their affinities for CB1R and CB2R based on each test compound's ability to displace the radiolabeled CB1R/CB2R agonist CP-55,940 from membranes prepared from a mouse brain (a source of CB1R) and membranes of cells expressing the human CB2R. […] Therefore, the compounds were assayed using membranes from CHO-K1 cells expressing the human CB2R (hCB2R).
Membranes from cells expressing human CB2R were purchased from Charles River, (Cat #A308; Ohio, US). Solutions of test compounds ranging from 0.1 nM to 10 mM were prepared in DMSO. The desired amount of membrane preparation was diluted with ice-cold assay buffer (50 mM Tris-HCl, 2.5 mM EDTA, 5 mM MgCl2, 0.1% BSA, pH 7.4) and was vortexed. […] The assays were incubated for 90 minutes at 30° C. and then immediately filtered on WHATMAN GF/B FilterPaper (Fired) using a Brandel M-24R Harvester followed by six washes with ice cold wash buffer (50 mM Tris-HCl, 2.5 mM EDTA, 5 mM MgCl2, 0.1% BSA, pH 7.4). Radioactivity was detected by adding the FilterPaper directly to the ULTIMA GOLD scintillation cocktail (PerkinElmer), incubation at 20° C. for 60 min and then counted using a Tri-Carb 4910TR liquid scintillation counter.

[4] = test system: zymosan-induced hyperalgesia; assay: zymosan mouse paw inflammatory pain model, von Frey test, with or without CB2 antagonists; type: in vivo; conditions: for von Frey pain effect: SR144528 experiment, 25 mg/kg IP
Procedure: To induce inflammation, 40 μL of 1.5% (w/v) zymosan A (Sigma) suspended in 0.9% saline was injected into the sub-planter surface of the right hind paw of the mice. Immediately after zymosan injection, antagonists were injected intraperitoneally (IP) and after 30 minutes, the fenchone derivatives dissolved in 0.1 mL vehicle containing ethanol:Cremophore:saline at a ratio of 1:1:18 were injected. Control mice were injected with the vehicle only. After 2, 6, and 24 hrs, paw swelling, and pain perception were measured.
Specifically, measurement of Oedema Formation was assessed by monitoring paw swelling via calibrated calipers (0.01 mm), 6 and 24 hrs following injections of zymosan alone and/or the test compounds. Pain hyperalgesia was evaluated by the paw withdrawal von Frey test at 6, and 24 h following injections of zymosan and/or the test compounds. […] In this study, only 1.4-60 g corresponding to 4.17 to 5.88 log of force was used, to test the mouse sensitivity to a mechanical stimulus on the swollen paw. The measurements were performed in a quiet room. Before paw pain measurements, the animals were held for 10 sec. The trained investigator applied the filament to the central area of the hind paw with gradual increasing size. The test consisted of poking the middle of the hind paw to provoke a flexion reflex followed by a clear flinch response after paw withdrawal. Each one of the von Frey filaments was applied for approximately 3-4 s to induce the end-point reflex. The first testing was done by using the force filament of 1.4 g. If there was no withdrawal response, the next higher stimulus was tried. The mechanical threshold force (in grams (g)) was defined as the lowest force imposed by two von Frey monofilaments of various sizes, required to produce a paw retraction. The untreated left hind paw served as a control.

[5] = target: CNR2 (Homo sapiens (Human), UniProt P34972); assay: cAMP Hunter agonist assay, CHO-K1 cells expressing CB2; type: cell-based; conditions: for pEC50: cells expressing CNR2; for agonist response CNR2: cells expressing CNR2, cAMP
Procedure: as §1
Similarly, for agonist activity, cAMP Hunter™ Gs cell lines overexpress naturally Gs coupled, wild type GPCRs and are designed to detect increases in intracellular cAMP levels in response to agonist stimulation of the receptor. These cell lines are designed to be used in conjunction with the HitHunter® cAMP Assay Detection Kit. For both assays, human CB1 or CB2 receptors were stably transfected CHO-K1 cells and subjected to positive controls, known to activate the increase of cAMP for both receptors (Agonist control 20 μM Forskolin for CB1 and 25 μM Forskolin for CB2) or inhibit cAMP intracellular levels of CB1 ([…] CP55940) or CB2 ([…] CP55940). Cells were seeded in a total volume of 20 μL into white walled, 384-well microplates and incubated at 37° C. overnight. Prior to testing cell plating media was exchanged with 10 uL of Assay buffer (HBSS+10 mM HEPES). Five 5 μL of agonist (test sample, vehicle or positive control) were added to cells and incubated at 37° C. for 30 minutes. Final assay vehicle concentration was 1% and the results are expressed in relation to the control ligand.

hCB2R, sequence (P34972 whole entry): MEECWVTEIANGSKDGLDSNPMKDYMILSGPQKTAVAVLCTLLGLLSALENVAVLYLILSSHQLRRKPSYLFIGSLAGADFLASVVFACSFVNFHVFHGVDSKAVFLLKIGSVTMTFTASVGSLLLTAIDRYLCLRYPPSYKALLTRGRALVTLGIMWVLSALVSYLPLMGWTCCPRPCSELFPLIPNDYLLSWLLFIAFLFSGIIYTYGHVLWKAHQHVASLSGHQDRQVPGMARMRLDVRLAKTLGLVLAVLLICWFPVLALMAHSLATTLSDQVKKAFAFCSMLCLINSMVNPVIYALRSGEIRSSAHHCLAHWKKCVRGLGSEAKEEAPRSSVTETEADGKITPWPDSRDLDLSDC

For `CCCCCc1cc(OC)c(C2(O)C3(C)CCC(C3)C2(C)C)c(OC)c1` (single isomer, unassigned) [Compound 1b, 2-(2,6′-dimethoxy-4′-pentylphenyl)-1,3,3-trimethylbicyclo[2.2.1]heptan-2-ol], the “EC50 in chondrocytes compared with HU308” value [1] was “low EC50; also recorded: superior EC50 over HU308”, the “agonist response CNR1” value [2] was “no response” and the Ki [3] was 14.4 nM. The mCB1R/hCB2R [3] was 158.3, the “von Frey pain effect” value [4] was “insignificant” and the pEC50 [5] was 7.30. For the same molecule, the “agonist response CNR2” value [5] was “noticeable response”.

For `CCCCCCC(C)(C)c1cc(OC)c([C@]2(O)C3(C)CCC(C3)C2(C)C)c(OC)c1` (stereo partly shown) [Compound 1d, 2-(2,6′-dimethoxy-4′-(2″-methyloctan-2″-yl)phenyl)-1,3,3-trimethyl-bicyclo[2.2.1]heptan-2-ol], the “EC50 in chondrocytes compared with HU308” value [1] was “low EC50; also recorded: superior EC50 over HU308”, the “agonist response CNR1” value [2] was “no response” and the Ki [3] was 3.51 nM. For the same molecule, the “selectivity for the hCB2R over the mCB1R” value ([3]; from Ki values) was 121 fold, the mCB1R/hCB2R [3] was 121.8 and the “von Frey pain phenotype” value ([4]; 25 mg/kg IP alone, AM630 experiment) was “significant affect”. The “von Frey pain effect” value [4] was “insignificant”, the pEC50 [5] was 8.00 and the “agonist response CNR2” value [5] was “noticeable response”.

From patent US20250002435A1, “ARYLATED FENCHONE DERIVATIVES, COMPOSITIONS COMPRISING THEM, PROCESSES FOR THEIR PREPARATION AND USES THEREOF” (priority 2021, published 2025)
